# Assay results published in article PMC12198282, “Application of a high-density microelectrode array assay using a 3D human iPSC-derived brain microphysiological system model for in vitro neurotoxicity screening of environmental compounds” (Archives of Toxicology, 2025).
# Like-named read-outs stand apart in the source and are kept apart here.
# Test system: human iPSC-derived 3D BrainSpheres
# Test: BrainSphere MEA assay (HD-MEA, 13-day exposure, concentration-response); on hitc Mean.Spheroid.Burst.Duration: key: 1 (active); 0 (inactive); on hitc Mean.Spheroid.Burst.ISI: key: 1 (active); 0 (inactive); on hitc Mean.Spheroid.Burst.Peak.Firing.Rate: key: 1 (active); 0 (inactive); on hitc Mean.Spheroid.Firing.Rate: key: 1 (active); 0 (inactive); on hitc Mean.Spheroid.IBI: key: 1 (active); 0 (inactive); on hitc Mean.Spheroid.Nonburst.ISI: key: 1 (active); 0 (inactive); on hitc Mean.Spheroid.Spikes.per.Burst.per.Electrode: key: 1 (active); 0 (inactive); on hitc Mean.Spheroid.Spikes.per.Burst: key: 1 (active); 0 (inactive); on hitc Spheroid.Burst.Frequency: key: 1 (active); 0 (inactive); on hitc Spheroid.Spike.Amplitude.90th.Percentile: key: 1 (active); 0 (inactive)
# Type: cell-based
# Details: for Difference of minimum potency between BrainSphere MEA assay and rNFA: 5th percentile of AC50 values by chemical, above 0.5 = more potent in the rNFA; for EC (benchmark response 1.349 SD): 312 h; for AC50: concentration at 50% maximal activity, Supplement 3 prints it also for curves with hit call 0; for Percent active: metrics active out of the total number of metrics screened; for Hits: total number of active endpoints out of 10 MEA activity metrics, 13-day exposure
# Protocol: A volume of 1 ml of Tergazyme (1% solution in deionized water) was added to each well of the MaxTwo 6-Well Plate (MaxWell Biosystems) and incubated overnight under constant gyratory shaking (88 RPM) at 37 °C and 5% CO2. The next day, Tergazyme solution was removed, and plates were washed with distilled water and ethanol. After remaining ethanol was evaporated, wells were washed with PBS. Then, 200 µl of Poly-D-Lysine (Gibco, A38904 - 01) was added on top of the electrodes and incubated at 37 °C and 5% CO2 for 3 h (humidified). Poly-D-Lysine was then removed, and wells were coated with 100 µl of 0.1 mg/ml laminin coating solution (Sigma-Aldrich, L2020 - 1 mg) and incubated for 2 h at 37 ℃ and 5% CO2 (humidified). The laminin was removed after incubation. Using a 1 ml micropipette, 1 ml of medium containing BrainSpheres (7 weeks differentiated), approximately 25 BrainSpheres per ml, was plated on top of the HD-MEA chip (Fig. 1A). Afterwards, the plate was placed in an incubator at 37 °C and 5% CO2 and moved in circles to accumulate the BrainSpheres on top of the electrode area (Fig. 1A). The plate was kept in an incubator (humidified) for 2 days to allow attachment of the BrainSpheres with no gyratory shaking of the plates.
# The MaxTwo high-density microelectrode array system (MaxWell Biosystems AG, Zurich, Switzerland) was used to measure neural activity with MaxTwo 6-well plates, where every well includes an integrated chip with 26,400 platinum electrodes arranged in an area of 3.85 × 2.10 mm^2 ([…]) (Muller et al. [2015]). The data were recorded and analyzed with the MaxLab Live Software (version 22.2.22). First, the MaxLab live ActivityScan Assay was used to identify the activity and positioning of the BrainSpheres on the array by scanning all the 26,400 electrodes in 29 configurations in a well (Assay Parameters: Configuration = Full; Recording time per configuration = 60 s (s)). The settings gain = 512, high-pass-filter (HPF): ~ 1 Hz and spike threshold = 5 X root-mean square (RMS) noise were used for all HD-MEA recordings. Circular regions of interest (ROI) were manually selected in the Activity Map where neuronal activity was apparent by an increased activity (Fig. 2). Over the course of the 13-day experiment, the same selected regions and electrodes were measured using the MaxLab Live Network Assay (600 s recording time).
# A custom analysis framework was used to extract the MaxLab Live neuronal metrics for the individual BrainSpheres. For this, electrodes comprising a single ROI (i.e., individual BrainSphere; Fig. 2D) were grouped using distance-based clustering (fcluster method of Scipy library, Python 3.7) and neural metrics were calculated for the clustered electrodes for every ROI separately. Figure 2E presents a raster plot illustrating the activity associated with individual Regions of Interest (ROIs). […] Ten MaxLab Live neural metrics (endpoints) were evaluated from the MaxLab live ActivityScan and Network Assay in this study. See Table 3 for the endpoint definitions, tuned parameters, and activity type (general versus network connectivity).
# The BrainSphere MEA assay measured changes in neural activity during a 13-day chemical exposure. The first recording day of the concentration–response screening protocol (day of exposure (DOE) 0) occurred after 7 weeks of BrainSphere differentiation, 48 h after plating on HD-MEA plates (Fig. 1B). The study included at least three biological replicates (one well per plate) from separate experiments (e.g., three different plates on three different days) and each well included multiple BrainSpheres which were considered technical replicates.
# [1] = AUC over 13-day exposure, tcplfit2
# [2] = Homo sapiens, 5th percentile across active AC50 values per chemical, read-out: Minimum potency
# [3] = Homo sapiens, tcplfit2 BMD at benchmark response (1.349*SD of baseline controls), read-out: BMD Mean.Spheroid.Burst.ISI
# [4] = Homo sapiens, tcplfit2 BMD at benchmark response (1.349*SD of baseline controls), read-out: BMD Mean.Spheroid.Nonburst.ISI
# [5] = Homo sapiens, read-out: ac50 Mean.Spheroid.Burst.Duration
# [6] = Homo sapiens, read-out: ac50 Mean.Spheroid.Burst.ISI
# [7] = Homo sapiens, read-out: ac50 Mean.Spheroid.Burst.Peak.Firing.Rate
# [8] = Homo sapiens, read-out: ac50 Mean.Spheroid.Firing.Rate
# [9] = Homo sapiens, read-out: ac50 Mean.Spheroid.IBI
# [10] = Homo sapiens, read-out: ac50 Mean.Spheroid.Nonburst.ISI
# [11] = Homo sapiens, read-out: ac50 Mean.Spheroid.Spikes.per.Burst
# [12] = Homo sapiens, read-out: ac50 Mean.Spheroid.Spikes.per.Burst.per.Electrode
# [13] = Homo sapiens, read-out: ac50 Spheroid.Burst.Frequency
# [14] = Homo sapiens, read-out: ac50 Spheroid.Spike.Amplitude.90th.Percentile
# [15] = Homo sapiens, mean across active AC50 values per chemical, read-out: Mean potency
# [16] = read-out: ac50 Mean.Spheroid.Firing.Rate
# [17] = tcplfit2 BMD at benchmark response (1.349*SD of baseline controls)
# [18] = tcplfit2 output ACC, activity cutoff in Supplemental Table 1
smiles,measurement,setting,value
CC(C)(c1ccc(O)cc1)c1ccc(O)cc1 [Bisphenol A],Difference of minimum potency between BrainSphere MEA assay and rNFA,,≤ 0.5 log10 µM
same,hitc Mean.Spheroid.Burst.Duration,[1],1
same,hitc Mean.Spheroid.Burst.ISI,[1],1
same,hitc Mean.Spheroid.Burst.Peak.Firing.Rate,[1],1
same,hitc Mean.Spheroid.Firing.Rate,[1],1
same,hitc Mean.Spheroid.IBI,[1],1
same,hitc Mean.Spheroid.Nonburst.ISI,[1],0
same,hitc Mean.Spheroid.Spikes.per.Burst,[1],1
same,hitc Mean.Spheroid.Spikes.per.Burst.per.Electrode,[1],1
same,hitc Spheroid.Burst.Frequency,[1],1
same,hitc Spheroid.Spike.Amplitude.90th.Percentile,[1],1
same,EC50,[2],29.1 µM
same,EC (benchmark response 1.349 SD),[3],27 µM
same,EC (benchmark response 1.349 SD),[4],50 µM
same,AC50,[5],29.4 µM
same,AC50,[6],29.2 µM
same,AC50,[7],30 µM
same,AC50,[8],29 µM
same,AC50,[9],45 µM
same,AC50,[10],45 µM
same,AC50,[11],45 µM
same,AC50,[12],29.1 µM
same,AC50,[13],45 µM
same,AC50,[14],45 µM
same,EC50,[15],36.3 µM
same,AC50,read-out: ac50 Mean.Spheroid.Burst.Peak.Firing.Rate,29.6 µM
same,AC50,[16],29.3 µM
same,Percent active,,90%
same,BMD Mean.Spheroid.Burst.Duration,[17],28 µM
same,BMD Mean.Spheroid.Burst.Peak.Firing.Rate,[17],28 µM
same,BMD Mean.Spheroid.Firing.Rate,[17],30 µM
same,BMD Mean.Spheroid.IBI,[17],31 µM
same,BMD Mean.Spheroid.Spikes.per.Burst,[17],40 µM
same,BMD Mean.Spheroid.Spikes.per.Burst.per.Electrode,[17],28 µM
same,BMD Spheroid.Burst.Frequency,[17],47 µM
same,BMD Spheroid.Spike.Amplitude.90th.Percentile,[17],33 µM
same,ACC Mean.Spheroid.Burst.Duration,[18],27 µM
same,ACC Mean.Spheroid.Burst.ISI,[18],26 µM
same,ACC Mean.Spheroid.Burst.Peak.Firing.Rate,[18],28 µM
same,ACC Mean.Spheroid.Firing.Rate,[18],31 µM
same,ACC Mean.Spheroid.IBI,[18],44 µM
same,ACC Mean.Spheroid.Nonburst.ISI,[18],58 µM
same,ACC Mean.Spheroid.Spikes.per.Burst,[18],50 µM
same,ACC Mean.Spheroid.Spikes.per.Burst.per.Electrode,[18],29 µM
same,ACC Spheroid.Burst.Frequency,[18],42 µM
same,ACC Spheroid.Spike.Amplitude.90th.Percentile,[18],44 µM
same,Hits,,9
ClC1=C(Cl)[C@]2(Cl)[C@@H]3[C@@H]4C[C@@H]([C@H]5O[C@@H]45)[C@@H]3[C@@]1(Cl)C2(Cl)Cl [Dieldrin],Difference of minimum potency between BrainSphere MEA assay and rNFA,,more than 0.5 log10 µM
same,hitc Mean.Spheroid.Burst.ISI,[1],1
same,hitc Mean.Spheroid.Burst.Peak.Firing.Rate,[1],1
same,hitc Mean.Spheroid.Firing.Rate,[1],1
same,hitc Mean.Spheroid.IBI,[1],1
same,hitc Mean.Spheroid.Nonburst.ISI,[1],0
same,hitc Mean.Spheroid.Spikes.per.Burst,[1],1
same,hitc Mean.Spheroid.Spikes.per.Burst.per.Electrode,[1],1
same,hitc Spheroid.Burst.Frequency,[1],1
same,hitc Spheroid.Spike.Amplitude.90th.Percentile,[1],1
same,EC50,[2],9.51 µM
same,EC (benchmark response 1.349 SD),[3],9.9 µM
same,EC (benchmark response 1.349 SD),[4],45 µM
same,AC50,[5],13 µM
same,AC50,[6],12 µM
same,AC50,[7],11.7 µM
same,AC50,[8],9.5 µM
same,AC50,[9],28 µM
same,AC50,[10],45 µM
same,AC50,[11],12.3 µM
same,AC50,[12],11 µM
same,AC50,[13],9.6 µM
same,AC50,[14],21 µM
same,EC50,[15],14.3 µM
same,AC50,read-out: ac50 Mean.Spheroid.Burst.Duration,12.9 µM
same,AC50,read-out: ac50 Mean.Spheroid.Burst.ISI,12.2 µM
same,AC50,[16],9.45 µM
same,AC50,read-out: ac50 Mean.Spheroid.IBI,28.2 µM
same,AC50,read-out: ac50 Mean.Spheroid.Spikes.per.Burst.per.Electrode,11.2 µM
same,AC50,read-out: ac50 Spheroid.Burst.Frequency,9.6 µM
same,AC50,read-out: ac50 Spheroid.Spike.Amplitude.90th.Percentile,20.8 µM
same,Percent active,,90%
same,BMD Mean.Spheroid.Burst.Peak.Firing.Rate,[17],9.9 µM
same,BMD Mean.Spheroid.Firing.Rate,[17],9.3 µM
same,BMD Mean.Spheroid.IBI,[17],27 µM
same,BMD Mean.Spheroid.Spikes.per.Burst,[17],11 µM
same,BMD Mean.Spheroid.Spikes.per.Burst.per.Electrode,[17],9.9 µM
same,BMD Spheroid.Burst.Frequency,[17],9.8 µM
same,BMD Spheroid.Spike.Amplitude.90th.Percentile,[17],17 µM
same,ACC Mean.Spheroid.Burst.ISI,[18],8.4 µM
same,ACC Mean.Spheroid.Burst.Peak.Firing.Rate,[18],9.6 µM
same,ACC Mean.Spheroid.Firing.Rate,[18],11 µM
same,ACC Mean.Spheroid.IBI,[18],28 µM
same,ACC Mean.Spheroid.Nonburst.ISI,[18],52 µM
same,ACC Mean.Spheroid.Spikes.per.Burst,[18],13 µM
same,ACC Mean.Spheroid.Spikes.per.Burst.per.Electrode,[18],10 µM
same,ACC Spheroid.Burst.Frequency,[18],9.2 µM
same,ACC Spheroid.Spike.Amplitude.90th.Percentile,[18],20 µM
same,Hits,,9
